Source: PubChem BioAssay AID248 (DTP/NCI, 2004)
Where “and” joins values, the source holds several entries; their conditions need not be identical. Equal values may be shown once. Toxic doses and inconclusive results are not listed. Rule as the data show it: active = T/C of 150% or more; inactive = T/C below 125%.

Test system: L1210 leukemia ip in BDF1 mice, survival T/C
Assay: NCI In Vivo Anticancer Drug Screen. Data for tumor model L1210 Leukemia (intraperitoneal) in B6D2F1 (BDF1) mice
Details: endpoint: mean survival time, higher = longer survival
Procedure, shortened: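 Mice bearing the transplanted tumor received compound or vehicle. Survival of the treated group was divided by that of the vehicle-treated control group to give the ratio.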

[1] = dose: 400.0 mg/kg/injection, schedule: Q04DX002 (ip), vehicle: saline with Tween-80
[2] = dose: 400.0 mg/kg/injection, schedule: Q04DX003 (ip), vehicle: saline with Tween-80
[3] = dose: 100.0 mg/kg/injection, schedule: Q01DX001 (ip), vehicle: saline
[4] = dose: 200.0 mg/kg/injection, schedule: Q01DX001 (ip), vehicle: saline
[5] = dose: 100.0 mg/kg/injection, schedule: Q01DX009 (ip), vehicle: Klucel (hydroxypropylcellulose) (HPC)
[6] = dose: 200.0 mg/kg/injection, schedule: Q01DX009 (ip), vehicle: Klucel (hydroxypropylcellulose) (HPC)
[7] = dose: 100.0 mg/kg/injection, schedule: Q04DX003 (ip), vehicle: saline
[8] = dose: 200.0 mg/kg/injection, schedule: Q04DX003 (ip), vehicle: saline
[9] = dose: 100.0 mg/kg/injection, schedule: Q01DX001 (ip), vehicle: Klucel (hydroxypropylcellulose) (HPC)
[10] = dose: 200.0 mg/kg/injection, schedule: Q01DX001 (ip), vehicle: Klucel (hydroxypropylcellulose) (HPC)
[11] = dose: 100.0 mg/kg/injection, schedule: Q04DX002 (ip), vehicle: saline with Tween-80
[12] = dose: 50.0 mg/kg/injection, schedule: Q04DX003 (ip), vehicle: saline
[13] = dose: 100.0 mg/kg/injection, schedule: Q04DX003 (ip), vehicle: saline with Tween-80
[14] = dose: 200.0 mg/kg/injection, schedule: Q04DX003 (ip), vehicle: saline with Tween-80
[15] = dose: 100.0 mg/kg/injection, schedule: Q04DX003 (ip), vehicle: Klucel (hydroxypropylcellulose) (HPC)
[16] = dose: 200.0 mg/kg/injection, schedule: Q04DX003 (ip), vehicle: Klucel (hydroxypropylcellulose) (HPC)
[17] = dose: 400.0 mg/kg/injection, schedule: Q01DX009 (ip), vehicle: Klucel (hydroxypropylcellulose) (HPC)
[18] = dose: 400.0 mg/kg/injection, schedule: Q04DX003 (ip), vehicle: Klucel (hydroxypropylcellulose) (HPC)
[19] = dose: 100.0 mg/kg/injection, schedule: Q01DX009 (ip), vehicle: saline with Tween-80
[20] = dose: 200.0 mg/kg/injection, schedule: Q01DX009 (ip), vehicle: saline with Tween-80

Measured: T/C

COc1ccc(S(=O)Nc2ccccc2)cc1 (stereo not given)
inactive: dose: 25.6 mg/kg/injection, schedule: Q04DX002 (ip), vehicle: saline with Tween-80 108 % of control | dose: 64.0 mg/kg/injection, schedule: Q04DX002 (ip), vehicle: saline with Tween-80 115 % of control | dose: 160.0 mg/kg/injection, schedule: Q04DX002 (ip), vehicle: saline with Tween-80 101 % of control | [1] 112 % of control | [2] 95 % of control

CC(Cc1ccccc1)N1C(=O)C=CC1=O (stereo not given)
inactive: dose: 3.12 mg/kg/injection, schedule: Q01DX009 (ip), vehicle: Klucel (hydroxypropylcellulose) (HPC) 92 % of control | dose: 6.25 mg/kg/injection, schedule: Q01DX009 (ip), vehicle: Klucel (hydroxypropylcellulose) (HPC) 101 % of control | dose: 12.5 mg/kg/injection, schedule: Q01DX009 (ip), vehicle: Klucel (hydroxypropylcellulose) (HPC) 93 % of control and 90 % of control

Cc1nnc(C)n1N
inactive: [3] 106 % of control | [4] 106 % of control | dose: 400.0 mg/kg/injection, schedule: Q01DX001 (ip), vehicle: saline 95 % of control

COc1ccc(C=O)cc1OCCCCCOc1cc(C=O)ccc1OC
inactive: dose: 50.0 mg/kg/injection, schedule: Q01DX009 (ip), vehicle: Klucel (hydroxypropylcellulose) (HPC) 86 % of control | [5] 101 % of control | [6] 90 % of control

CCS(=O)(=O)C(=CN(C)C)S(=O)(=O)CC
inactive: dose: 75.0 mg/kg/injection, schedule: Q04DX003 (ip), vehicle: saline 97 % of control | dose: 150.0 mg/kg/injection, schedule: Q04DX003 (ip), vehicle: saline 97 % of control | dose: 300.0 mg/kg/injection, schedule: Q04DX003 (ip), vehicle: saline 92 % of control

CC1(C)OCC(C2OC(N)C3OC(C)(C)OC32)O1 (stereo not given)
inactive: dose: 100.0 mg/kg/injection, schedule: Q04DX002 (ip), vehicle: saline 97 % of control | dose: 200.0 mg/kg/injection, schedule: Q04DX002 (ip), vehicle: saline 113 % of control | dose: 400.0 mg/kg/injection, schedule: Q04DX002 (ip), vehicle: saline 103 % of control

CCCNC
inactive: dose: 50.0 mg/kg/injection, schedule: Q01DX009 (ip), vehicle: saline 90 % of control | dose: 100.0 mg/kg/injection, schedule: Q01DX009 (ip), vehicle: saline 100 % of control | [7] 96 % of control | [8] 98 % of control

C=CCCN(c1ccc(C(=O)OCC)cc1)S(=O)(=O)c1ccc(C)cc1
inactive: dose: 50.0 mg/kg/injection, schedule: Q01DX001 (ip), vehicle: carboxymethylcellulose (CMC) 102 % of control | dose: 100.0 mg/kg/injection, schedule: Q01DX001 (ip), vehicle: carboxymethylcellulose (CMC) 100 % of control | dose: 200.0 mg/kg/injection, schedule: Q01DX001 (ip), vehicle: carboxymethylcellulose (CMC) 107 % of control | dose: 400.0 mg/kg/injection, schedule: Q01DX001 (ip), vehicle: carboxymethylcellulose (CMC) 96 % of control

NC(=S)c1cccc(S(=O)(=O)Nc2ccccc2)c1
inactive: [9] 103 % of control | [10] 105 % of control | dose: 400.0 mg/kg/injection, schedule: Q01DX001 (ip), vehicle: Klucel (hydroxypropylcellulose) (HPC) 101 % of control

O=C1C=CC2C=CC1C(C(=O)O)C2C(=O)O (stereo not given) (tested in a mixture with another compound)
inactive: dose: 100.0 mg/kg/injection, schedule: Q01DX001 (ip), vehicle: saline with Tween-80 95 % of control | dose: 200.0 mg/kg/injection, schedule: Q01DX001 (ip), vehicle: saline with Tween-80 90 % of control | dose: 400.0 mg/kg/injection, schedule: Q01DX001 (ip), vehicle: saline with Tween-80 92 % of control

CCCCNC(=S)NN=C(N)N
inactive: [11] 96 % of control | dose: 200.0 mg/kg/injection, schedule: Q04DX002 (ip), vehicle: saline with Tween-80 100 % of control | [1] 92 % of control

CN(N)C(=S)c1ccc(Cl)cc1
inactive: [12] 102 % of control | [3] 95 % of control | [7] 100 % of control | [4] 93 % of control | [8] 96 % of control

Cc1ccc2nc3c(nc2c1)-c1cccc2cccc-3c12
inactive: dose: 25.0 mg/kg/injection, schedule: Q01DX009 (ip), vehicle: saline with Tween-80 94 % of control | dose: 50.0 mg/kg/injection, schedule: Q01DX009 (ip), vehicle: saline with Tween-80 90 % of control | [13] 102 % of control | [14] 93 % of control

CC(C)C[As](=O)(O)CC(C)C
inactive: dose: 25.0 mg/kg/injection, schedule: Q04DX003 (ip), vehicle: saline 104 % of control | [12] 109 % of control

Nc1nc[nH]c1-c1n[nH]c(=O)[nH]1
inactive: [9] 108 % of control | [10] 104 % of control

O=C(NNS(=O)(=O)c1ccccc1)C1Oc2ccccc2O1
inactive: dose: 25.0 mg/kg/injection, schedule: Q04DX002 (ip), vehicle: Klucel (hydroxypropylcellulose) (HPC) 96 % of control | dose: 50.0 mg/kg/injection, schedule: Q04DX002 (ip), vehicle: Klucel (hydroxypropylcellulose) (HPC) 93 % of control | dose: 100.0 mg/kg/injection, schedule: Q04DX002 (ip), vehicle: Klucel (hydroxypropylcellulose) (HPC) 101 % of control

Cc1cc(Cl)ccc1NC(=O)c1ccc(Cl)cc1Cl
inactive: [5] 96 % of control | [15] 95 % of control | [6] 91 % of control | [16] 92 % of control | [17] 94 % of control | [18] 88 % of control

CC(C)=CCC/C(C)=C/CN1C(=O)CC(C)=C(C)C1=O
inactive: [19] 97 % of control | [13] 95 % of control | [20] 95 % of control | [14] 104 % of control | dose: 400.0 mg/kg/injection, schedule: Q01DX009 (ip), vehicle: saline with Tween-80 95 % of control | [2] 95 % of control

COc1ccc(OC)c(NC(=S)NC(=O)c2cccc([N+](=O)[O-])c2)c1
inactive: [5] 106 % of control | [15] 120 % of control | [6] 106 % of control | [16] 100 % of control | [17] 94 % of control | [18] 97 % of control

CCCCCCCCN(C=O)CCCCCCCC
inactive: [11] 98 % of control

CCCN(CCC)C(=O)C1C2C=CC(C2)C1C(=O)N(CCC)CCC (stereo not given)
inactive: [13] 98 % of control | [14] 111 % of control | [2] 98 % of control

CC(C)c1cc(C(C)C)c(C(=O)Oc2c(Br)cc(Br)cc2Br)c(C(C)C)c1
inactive: [19] 95 % of control | [13] 98 % of control | [20] 92 % of control | [14] 93 % of control | [2] 90 % of control
